Source: US7326420B2, “Benzoyl peroxide compositions having increased potency” (priority 2001, dated 2008)

What was measured:
[1] = tested on: Candida albicans isolates; assay: Checkerboard microdilution susceptibility test (MIC alone and in combination, FICI); assay type: cell-based
Method: (§1) The object of this preliminary study was to discover the in vitro effect of the addition of benzoyl peroxide to terbinafine when tested against Candida albicans, Pseudomonas aeruginosa, and Staphylococcus aureus isolates, using a checkerboard microdilution method. […]
(§2) In this study, ten serial dilutions of terbinafine (starting at 32 μg/ml) and benzoyl peroxide (starting at 3%) were tested alone and in combination against ten Candida albicans isolates from the culture collection at the Center for Medical Mycology. Both susceptible and fluconazole-resistant strains were included. Two strains each of Pseudomonas aeruginosa and Staphylococcus aureus were also tested.
(§3) The individual minimum inhibitory concentrations (MICs) of terbinafine and BP against each isolate were determined according to the NCCLS M27-A2 and M07-A6 standards for yeasts and aerobic bacteria, respectively.
(§4) The effect of combining benzoyl peroxide with terbinafine was evaluated using a checkerboard assay. This test method is a modification of the microdilution antifungal susceptibility test (NCCLS M27A2) wherein two antifungal agents are combined in varying concentrations to determine whether they have a synergistic, additive, or antagonistic effect on the respective minimum inhibitory concentration (MIC) values.
(§5) Two antifungal agents were serially diluted in RPMI to produce ten concentrations of the drugs under investigation. The range was chosen to include achievable serum levels of the drugs. The two drugs were then combined into wells of a microtiter plate so that the concentration of one drug increases as that of the other decreased. Two rows consisting of serial dilutions of each individual drug were also included. Comparison of the MICs of the individual antifungal agents to the MIC of the combined agents was indicative of their relative efficacy.
(§6) [formula] The combination of two drugs was reported as synergistic (<0.5), additive (0.5<FICI <1.0), indifferent (1.0<FICI <4.0), or antagonistic (.4.0).

[2] = tested on: Staphylococcus aureus isolates; assay: as above; assay type: cell-based
Method: as §1, §2, §3, §4, §5, §6

[3] = tested on: Pseudomonas aeruginosa isolates; assay: as above; assay type: cell-based
Method: as §1, §2, §3, §4, §5, §6

[4] = Polymerization of tetraethylene glycol dimethacrylate (gel formation) as a test of BP radical activity; assay type: physicochemical; conditions: agent in combination with BP, 3% w/w in tetraethylene glycol dimethacrylate, oven 90 to 100 degrees Celsius
Excerpt: Methods: Polymerization of tetra ethylene glycol dimethacrylate was used as a test of BP radical activity. Solutions of BP, antibiotics, and BP and antibiotics were made at 3% w/w in tetraethylene glycol dimethacrylate. All of the antibiotics except erythromycin (ERY) were obtained from prescription pills, which were crushed in a crucible. The portion of the pills that disolved in tetraethylene glycol dimethacrylate were used in the experiment. ERY was obtained in powdered form from Benzamycin® acne treatments. Aliquots of ten drops of these solutions were placed in an eight well plastic plate. The samples were heated in an oven that maintained a temperature range between 90 to 100 degrees Celsius. After various amounts of time the samples were taken out of the oven and tested for gel formation. Polymerization of tetraethylene glycol dimethacrylate was detected visually by swirling a spatula in the solutions. Gelling constituted an indicator of BP radical activity.

[5] = C. albicans (n = 10), individual compound
[6] = S. aureus (n = 2), individual compound
[7] = Ps. aeruginosa (n = 2), individual compound

In the case of `O=C(OOC(=O)c1ccccc1)c1ccccc1` [Benzoyl Peroxide, Benzoyl peroxide], the “number of isolates with MIC of Benzoyl Peroxide 0.38%” value [1, 5] is reported as 6, the “number of isolates with MIC of Benzoyl Peroxide 3.0%” value [1, 5] is reported as 4 and the “number of isolates with MIC of Benzoyl Peroxide 1.5%” value [2, 6] is reported as 2. For the same molecule, the “number of isolates with MIC of Benzoyl Peroxide 0.09%” value [3, 7] was 2.
In the case of `CC[C@H]1OC(=O)[C@H](C)[C@@H](O[C@H]2C[C@@](C)(OC)[C@@H](O)[C@H](C)O2)[C@H](C)[C@@H](O[C@@H]2O[C@H](C)C[C@H](N(C)C)[C@H]2O)[C@](C)(O)C[C@@H](C)C(=O)[C@H](C)[C@@H](O)[C@]1(C)O` [ERY, erythromycin], the “effect of the agent on BP radical activity (speed of polymerization of tetraethylene glycol dimethacrylate)” value [4] is reported as “polymerize the fastest”.
For `CN(C/C=C/C#CC(C)(C)C)Cc1cccc2ccccc12` [Terbinafine, terbinafine], the “number of isolates with MIC of Terbinafine 8 μg/ml” value [1, 5] was 1, the “number of isolates with MIC of Terbinafine >32 μg/ml” value (“number … of Terbinafine >32 μg/ml” for short) [1, 5] was 9 and the MIC ([1]; Candida albicans, read-out: MIC of terbinafine alone) was greater than 32 µg/mL. For the same molecule, the “number … of Terbinafine >32 μg/ml” value [2, 6] was 2, the MIC ([2]; Staphylococcus aureus, read-out: MIC of terbinafine alone) was greater than 32 µg/mL and the “number … of Terbinafine >32 μg/ml” value [3, 7] was 2. The MIC ([3]; Pseudomonas aeruginosa, read-out: MIC of terbinafine alone) was greater than 32 µg/mL.
With `N[C@@H]1[C@H]2CN(c3nc4c(cc3F)c(=O)c(C(=O)O)cn4-c3ccc(F)cc3F)C[C@@H]12` [trovofloxacin] the “effect of the agent on BP radical activity (speed of polymerization of tetraethylene glycol dimethacrylate)” value [4] was “did not augment BP radical activity”.
